Measured values reported in ChEMBL document CHEMBL1150642, “Hirsutellide A, a new antimycobacterial cyclohexadepsipeptide from the entomopathogenic fungus Hirsutella kobayasii” (J Nat Prod, 2002).
≈ marks a conversion by molar mass, not a printed value. Where a SMILES comes first, the peptide text is derived from it. [ ]: non-standard residue; d: D form. aIle = CC[C@@H](C)[C@H](N)C(=O)O; dPhLac = O=C(O)[C@H](O)Cc1ccccc1; Sar = CNCC(=O)O

What was measured:
[1] = Cytotoxicity against human BC1 cells; type: functional, cell-based
[2] = tested on: Vero; experiment: Cytotoxicity against african green monkey Vero cells at 50 ug/mL by SRB assay; type: cell-based; settings: Chlorocebus sabaeus
[3] = tested on: Plasmodium falciparum; experiment: Antimalarial activity as reduced parasitaemia against multidrug-resistant Plasmodium falciparum K1 by [3H]hypoxanthine uptake; type: functional, organism-based
[4] = tested on: Mycobacterium tuberculosis; experiment: Antimycobacterial activity against Mycobacterium tuberculosis H37Ra by Microplate Alamar Blue Assay; type: functional

With `Cc1c2ccncc2c(C)c2c1[nH]c1ccccc12` [ELLIPTECINE] the IC50 [1] was 0.3 mg/L (≈ 1.22 µM).
In the case of `CC[C@@H](C)[C@@H]1NC(=O)[C@@H](Cc2ccccc2)OC(=O)CN(C)C(=O)[C@H]([C@H](C)CC)NC(=O)[C@@H](Cc2ccccc2)OC(=O)CN(C)C1=O` [HIRSUTELLIDE A] (cyclo([Sar][dPhLac][aIle][Sar][dPhLac][aIle])), the IC50 [2] is reported as 2.8 mg/L (≈ 4.21 µM), the Activity [3] is reported as “Not toxic” and the MIC [4] is reported as 6 mg/L (≈ 9.03 µM).
With `NNC(=O)c1ccncc1` [ISONIAZID] the MIC [4] was 0.04 mg/L (≈ 0.292 µM).
For `C[C@@H]1CC[C@H]2[C@@H](C)C(=O)O[C@@H]3O[C@@]4(C)CC[C@@H]1[C@]32OO4` [ARTEMISININ], the IC50 [3] was 0.001 mg/L (≈ 0.00354 µM).
`NC[C@H]1O[C@H](O[C@H]2[C@H](O)[C@@H](O[C@H]3O[C@H](CO)[C@@H](O)[C@H](N)[C@H]3O)[C@H](N)C[C@@H]2N)[C@H](O)[C@@H](O)[C@@H]1O.O=S(=O)(O)O` [KANAMYCIN SULFATE] gave an MIC [4] of 2 mg/L.
